# Counter-ions that a name gives are not always drawn. Like-named read-outs stand apart in the source and are kept apart here. Numbered stars: 1 amine (or outer) side, 2 acyl side, 3 side chain; on linkers, the order of the positions; unused ones are H or OH. Bridge positions count the residues as written; N and C are the ends. Square brackets hold non-standard residues; d marks the D form. Peptide text beside a SMILES is read from it. I, II: the chains in the order shown. Actinocin(9to1) = Cc1c2oc3c(C)ccc(C(=O)[*:1])c3nc-2c(C(=O)[*:2])c(N)c1=O; NMeV = CN[C@H](C(=O)O)C(C)C; Sar = CNCC(=O)O
# Experiments:
# P. falciparum Dd2-HLH [1] = test: microbe, parasite or virus in culture; format: cell-based, Plasmodium falciparum
# [2] = molecular target: P. berghei-luciferase sporozoites; test: microbe, parasite or virus in culture; format: cell-based, Plasmodium berghei
# HepG2 cells [3] = system: HepG2 cells
# HEK293T cells [4] = system: HEK293T cells
# HEK293T cells [5] = test: Mammalian cell cytotoxicity assay, HEK293T (CellTiter-Glo, 72 h); conditions: read-out: HEK CC50
# HepG2 cells [6] = test: Mammalian cell cytotoxicity assay, HepG2 (CellTiter-Glo, 72 h); conditions: read-out: HEP CC50
# P. falciparum Dd2-HLH [7] = test: microbe, parasite or virus in culture; format: cell-based, Plasmodium falciparum; remark: listed apart in the source
# [8] = Mammalian cell cytotoxicity assay, HepG2 (CellTiter-Glo, 72 h); conditions: human
# in vitro = conditions: human
# [9] = P. falciparum blood-stage parasites, 72 hours in culture, read-out: Blood stage 72h EC50
# [10] = liver-stage parasites, 48 hours in culture, read-out: Liver stage 48h EC50
# [11] = P. falciparum blood-stage parasites, 48 hours in culture, read-out: Blood stage 48h EC50
# [12] = Plasmodium falciparum, DD2, 72 h, read-out: Blood stage 72h EC50
# [13] = Plasmodium falciparum, DD2, 48 h, read-out: Blood stage 48h EC50
# [14] = Plasmodium falciparum, DD2, blood-stage parasites, 72 h in culture, read-out: Blood stage 72 h EC50
# [15] = Plasmodium berghei, liver-stage parasites, 48 h in culture, read-out: Liver 48 h EC50
# [16] = Plasmodium falciparum, DD2, blood-stage parasites, 48 h in culture, read-out: Blood stage 48 h EC50
# [17] = Plasmodium berghei, HepG2, liver-stage parasites, 48 hours in culture, read-out: Liver stage 48h EC50
SMILES,EC50 (P. falciparum Dd2-HLH [1]; [9]),"EC50 [2, 10]",CC50 (HepG2 cells [3]),CC50 (HEK293T cells [4]),EC50 (P. falciparum Dd2-HLH [7]; [11]),CC50 (in vitro),other results
CCNCc1cncc(-c2ccc3[nH]nc(-c4nc5c(F)cc(F)cc5[nH]4)c3c2)c1C [AG-024322],423 nM,2990 nM,112 nM,145 nM,,,
CCN(CC)CC(O)CNc1c2ccc(Cl)cc2nc2ccc(OC)cc12 (stereo not drawn) [Acranil],20 nM,312 nM,,,8 nM,,CC50 (HEK293T cells [5]; HEK293T cells): 1430 nM; CC50 (HepG2 cells [6]; HepG2 cells): 1110 nM
NC(=O)[C@@H](CC1CC1)[C@@H](CCC(F)(F)F)C(=O)N[C@H]1N=C(c2ccccc2)c2cccc(F)c2NC1=O [BMS-983970],84 nM,102 nM,59 nM,> 9950 nM,63 nM,,
CCN(CC)CCN1C(=O)c2c(c3c4cccc(Cl)c4n([C@@H]4O[C@H](CO)[C@@H](OC)[C@H](O)[C@H]4O)c3c3[nH]c4c(Cl)cccc4c23)C1=O [Becatecarin],194 nM,7160 nM,158 nM,143 nM,,,
Cc1cc2c(C(N)=O)cccc2n1-c1nc2c(c(NCc3ccccc3)n1)COCC2 [CB-5083],,,,,,469 nM,"CC50 at 72 h [8]: 468 nM; EC50 (P. falciparum Dd2-HLH [1]; [12]): 608 nM; EC50 ([2]; Plasmodium berghei, HepG2, 48 h, read-out: Liver stage 48h EC50): 540 nM; EC50 (P. falciparum Dd2-HLH [7]; [13]): 233 nM"
CCCCCN=C(N)Nc1nc(-c2cnc(C)[nH]2)cs1 [CP 66948],977 nM,> 10000 nM,> 9950 nM,> 9950 nM,615 nM,,
CN(C)CCOc1ccc2[nH]c(C(=O)NCC#Cc3ccc(C(=O)NO)cc3)cc2c1 [CRA-026440],63 nM,2490 nM,107 nM,836 nM,15 nM,,
COc1ccc(C)cc1NC(=O)Nc1nc2ccc(Nc3ncnc4cc(OCCCN5CCN(C)CC5)c(OC)cc34)cc2s1 [Compound 4SC-203],729 nM,3330 nM,4690 nM,3000 nM,,,
"Cc1c2oc3c(C)ccc(C(=O)N[C@@H]4C(=O)N[C@H](C(C)C)C(=O)N5CCC[C@H]5C(=O)N(C)CC(=O)N(C)[C@@H](C(C)C)C(=O)O[C@@H]4C)c3nc-2c(C(=O)N[C@@H]2C(=O)N[C@H](C(C)C)C(=O)N3CCC[C@H]3C(=O)N(C)CC(=O)N(C)[C@@H](C(C)C)C(=O)O[C@@H]2C)c(N)c1=O [Dactinomycin, reference compound] (I: T[dV]P[Sar][NMeV] / II: T[dV]P[Sar][NMeV]; ester I:1-I:C, II:1-II:C; linker I:N-II:N via Actinocin(9to1))",,,,,,9 nM,"CC50 at 72 h [8]: 3 nM; EC50 (P. falciparum Dd2-HLH [1]; [14]): 8 nM; EC50 [2, 15]: 73 nM; EC50 (P. falciparum Dd2-HLH [7]; [16]): 3 nM"
NC(=O)C(c1ccccc1)(c1ccccc1)[C@@H]1CCN(CCc2ccc3c(c2)CCO3)C1 [Darifen/Acin Hydrobromide],,,,,,> 9950 nM,"CC50 at 72 h [8]: > 9990 nM; EC50 (P. falciparum Dd2-HLH [1]; [12]): 324 nM; EC50 [2, 17]: > 10000 nM; EC50 (P. falciparum Dd2-HLH [7]; [13]): 1430 nM"
CC(C)CCNC(=O)C(CC(C)C)NC(=O)C1OC1C(=O)O (stereo not drawn) [EP-475],313 nM,> 10000 nM,> 9990 nM,> 9950 nM,267 nM,,
CS[C@H]1SC[C@H]2C(=O)N(C)[C@@H](C(C)C)C(=O)OC[C@@H](NC(=O)c3cnc4ccccc4n3)C(=O)N[C@@H](C)C(=O)N(C)[C@@H]1C(=O)N(C)[C@@H](C(C)C)C(=O)OC[C@@H](NC(=O)c1cnc3ccccc3n1)C(=O)N[C@@H](C)C(=O)N2C [Echinomycin],,,,,,1 nM,"CC50 at 72 h [8]: 1 nM; EC50 (P. falciparum Dd2-HLH [1]; Plasmodium falciparum, DD2, P. falciparum blood-stage parasites, 72 hours in culture, read-out: Blood stage 72h EC50): 3 nM; EC50 [2, 17]: 2 nM"
O=C1c2ccccc2C(=O)c2sc(-c3ccco3)nc21 [INO-5042],403 nM,2070 nM,705 nM,1330 nM,,,
CC(=O)[C@]1(O)Cc2c(O)c3c(c(O)c2[C@@H](O[C@H]2C[C@H](N)[C@H](O)[C@H](C)O2)C1)C(=O)c1ccccc1C3=O [Idarubicin],,,,,,36 nM,"EC50 (P. falciparum Dd2-HLH [1]; [12]): 302 nM; EC50 [2, 17]: 843 nM; EC50 (P. falciparum Dd2-HLH [7]; [13]): 1870 nM"
CCOC(=O)[C@@H]1O[C@H]1C(=O)NC(CC(C)C)C(=O)N1CCN(Cc2ccc(OC)c(OC)c2OC)CC1 (stereo partly drawn) [NCO 700],33 nM,> 10000 nM,> 9950 nM,> 9950 nM,16 nM,,
"COc1cccc2c1C(=O)c1c(O)c3c(c(O)c1C2=O)C[C@@](O)(C(=O)CO)C[C@@H]3O[C@H]1C[C@H](N2CCO[C@H](OC)C2)[C@H](O)[C@H](C)O1 [Nemorubicin, reference compound]",,,,,,5 nM,"CC50 at 72 h [8]: 2 nM; EC50 (P. falciparum Dd2-HLH [1]; [14]): 9 nM; EC50 [2, 15]: 9 nM; EC50 (P. falciparum Dd2-HLH [7]; [16]): 4 nM"
Cn1/c(=N\C#N)n(-c2ccc(C(C)(C)C#N)nc2)c2c3cc(-c4cnc(N)c(C(F)(F)F)c4)ccc3ncc21 [Panulisib],159 nM,77 nM,10 nM,11 nM,19 nM,,
CCCCCCCCN=c1ccn(CCCCCCCC)cc1 [Pirtenidine],615 nM,838 nM,,,,,CC50 (HEK293T cells [5]; HEK293T cells): 279 nM; CC50 (HepG2 cells [6]; HepG2 cells): 1080 nM
CCCNCC(O)COc1ccccc1C(=O)CCc1ccccc1 (stereo not drawn) [Propafenone SR],,,> 9990 nM,> 9950 nM,,,EC50 (P. falciparum Dd2-HLH [1]; read-out: Blood stage 72h EC50): 566 nM; EC50 ([2]; read-out: Liver stage 48h EC50): > 10000 nM; EC50 (P. falciparum Dd2-HLH [7]; read-out: Blood stage 48h EC50): 253 nM
"N[C@@H]1[C@H]2CN(c3nc4c(cc3F)c(=O)c(C(=O)O)cn4-c3ccc(F)cc3F)C[C@@H]12 [Trovafloxacin mesilate, reference compound]",,,,,,> 9950 nM,"EC50 (P. falciparum Dd2-HLH [1]; [12]): 669 nM; EC50 [2, 17]: > 10000 nM; EC50 (P. falciparum Dd2-HLH [7]; Plasmodium falciparum, DD2, read-out: EC50, antiplasmodial drug sensitivity assays in bloodstage): 9950 nM"
O=C1c2ccccc2-n2c1nc1ccccc1c2=O [Tryptanthrin],,,,,,> 9950 nM,"EC50 (P. falciparum Dd2-HLH [1]; [12]): 562 nM; EC50 [2, 17]: 41 nM; EC50 (P. falciparum Dd2-HLH [7]; [13]): 737 nM"
C=C/C=C/C[C@@H](C)[C@@H](O)[C@H]1C(=O)N[C@@H](CC)C(=O)N(C)CC(=O)N(C)[C@@H](CC(C)C)C(=O)N[C@@H](C(C)C)C(=O)N(C)[C@@H](CC(C)C)C(=O)N[C@@H](C)C(=O)N[C@H](C)C(=O)N(C)[C@@H](CC(C)C)C(=O)N(C)[C@@H](CC(C)C)C(=O)N(C)[C@@H](C(C)C)C(=O)N1C [Voclosporin],254 nM,,,,,,CC50 (HEK293T cells [5]; HEK293T cytotoxicity): > 9950 nM; CC50 (HepG2 cells [6]; HepG2 cytotoxicity): > 9950 nM

# From PMC11145868, “Protein target similarity is positive predictor of in vitro antipathogenic activity: a drug repurposing strategy for Plasmodium falciparum” (Journal of Cheminformatics, 2024)
